In experiment [1] the target is T1, B2 bradykinin receptor (Homo sapiens, UniProt P30411). Note: in other assays of this panel Not Active means under 50% inhibition at 10 µM.
T1 sequence (P30411 whole entry): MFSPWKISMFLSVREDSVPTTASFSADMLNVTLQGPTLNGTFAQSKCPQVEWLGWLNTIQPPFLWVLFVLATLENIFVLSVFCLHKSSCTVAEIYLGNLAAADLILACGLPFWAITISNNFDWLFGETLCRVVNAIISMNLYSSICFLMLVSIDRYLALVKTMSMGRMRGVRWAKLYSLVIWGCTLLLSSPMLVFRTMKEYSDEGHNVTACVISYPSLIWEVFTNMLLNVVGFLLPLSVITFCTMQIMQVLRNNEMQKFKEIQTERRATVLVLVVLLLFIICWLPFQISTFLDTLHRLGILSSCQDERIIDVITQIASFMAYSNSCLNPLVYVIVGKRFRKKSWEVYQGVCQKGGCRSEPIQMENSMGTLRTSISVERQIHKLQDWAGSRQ
It is filed as cell membranes, Membrane. The settings on record: chem-1.

For experiment [2], the target named is T2, Calcitonin receptor (Homo sapiens, UniProt P30988). Note: in other assays of this panel Not Active means under 50% inhibition at 10 µM.
T2 sequence (P30988 whole entry): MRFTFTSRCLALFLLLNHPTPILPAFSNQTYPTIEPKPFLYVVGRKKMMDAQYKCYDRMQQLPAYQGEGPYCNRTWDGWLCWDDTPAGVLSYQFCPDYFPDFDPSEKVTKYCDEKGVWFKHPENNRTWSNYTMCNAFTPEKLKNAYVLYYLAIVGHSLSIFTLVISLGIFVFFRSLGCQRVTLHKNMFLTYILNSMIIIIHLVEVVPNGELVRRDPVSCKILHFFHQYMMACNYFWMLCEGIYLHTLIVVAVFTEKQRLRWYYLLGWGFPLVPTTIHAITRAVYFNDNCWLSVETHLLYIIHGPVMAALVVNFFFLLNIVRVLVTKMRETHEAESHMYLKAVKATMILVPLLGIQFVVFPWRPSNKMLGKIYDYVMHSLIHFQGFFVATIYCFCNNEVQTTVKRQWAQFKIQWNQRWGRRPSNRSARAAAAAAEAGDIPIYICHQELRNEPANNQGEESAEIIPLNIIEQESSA
It is filed as cell membranes, Membrane. The following applies: t47d.

The target in experiment [3] is T3, D(4) dopamine receptor (Homo sapiens, UniProt P21917).
T3 sequence (P21917 whole entry): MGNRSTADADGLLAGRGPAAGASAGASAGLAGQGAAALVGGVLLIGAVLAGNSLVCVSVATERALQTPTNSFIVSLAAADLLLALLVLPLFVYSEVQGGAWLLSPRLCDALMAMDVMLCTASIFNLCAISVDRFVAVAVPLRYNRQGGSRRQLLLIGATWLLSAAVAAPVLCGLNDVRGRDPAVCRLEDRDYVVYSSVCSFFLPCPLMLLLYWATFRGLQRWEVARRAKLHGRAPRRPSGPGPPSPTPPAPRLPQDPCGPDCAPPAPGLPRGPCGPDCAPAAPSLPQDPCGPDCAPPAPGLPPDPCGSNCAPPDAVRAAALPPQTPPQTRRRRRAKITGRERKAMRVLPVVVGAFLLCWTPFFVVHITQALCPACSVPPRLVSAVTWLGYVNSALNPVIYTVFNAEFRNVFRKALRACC
As to the kind of experiment: DRUGMATRIX: Dopamine D4.2 radioligand binding (ligand: [3H] Spiperone). The class given is cell membranes, CHO-K1, Membrane. The settings on record: cho-k1; Not Active = under 50% inhibition at 10 µM.

Experiment [4] has as its target D(3) dopamine receptor (Homo sapiens, UniProt P35462). As to the kind of experiment: DRUGMATRIX: Dopamine D3 radioligand binding (ligand: [3H] Spiperone). It is filed as cell membranes, CHO, Membrane.
In experiment [5] the target is Beta-3 adrenergic receptor (Homo sapiens, UniProt P13945). As to the kind of experiment: DRUGMATRIX: Adrenergic beta3 radioligand binding (ligand: [125I] Cyanopindolol). The following applies: hek293; Not Active = under 50% inhibition at 10 µM. It is filed as cell membranes, HEK293, Membrane.
The target of experiment [6] is T4, C-X-C chemokine receptor type 2 (Homo sapiens, UniProt P25025). Note: in other assays of this panel Not Active means under 50% inhibition at 10 µM.
T4 sequence (P25025 whole entry): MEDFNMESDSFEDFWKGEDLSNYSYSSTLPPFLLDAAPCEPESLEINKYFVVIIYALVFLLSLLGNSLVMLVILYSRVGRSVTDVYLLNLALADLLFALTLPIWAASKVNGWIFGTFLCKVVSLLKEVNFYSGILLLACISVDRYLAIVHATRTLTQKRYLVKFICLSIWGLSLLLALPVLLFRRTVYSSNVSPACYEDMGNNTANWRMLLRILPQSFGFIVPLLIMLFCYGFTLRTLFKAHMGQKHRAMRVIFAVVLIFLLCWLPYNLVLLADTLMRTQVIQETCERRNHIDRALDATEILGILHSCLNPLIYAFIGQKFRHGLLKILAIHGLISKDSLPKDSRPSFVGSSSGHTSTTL
The class given is cell membranes, Membrane. The settings on record: cho-k1.

A short description of experiment [7]: DRUGMATRIX: Glutamate, NMDA, Phencyclidine radioligand binding (ligand: [3H] TCP). It is filed as cell membranes, Rattus norvegicus, Wistar, Cerebral cortex, Membrane. The settings on record: Not Active = under 50% inhibition at 10 µM.

The structures appear in SMILES notation.

IC50 and Ki data for 18 compounds are collected here from ChEMBL document CHEMBL1909046, “DrugMatrix in vitro pharmacology data”.

Chain of Beta-3 adrenergic receptor (P13945 whole entry): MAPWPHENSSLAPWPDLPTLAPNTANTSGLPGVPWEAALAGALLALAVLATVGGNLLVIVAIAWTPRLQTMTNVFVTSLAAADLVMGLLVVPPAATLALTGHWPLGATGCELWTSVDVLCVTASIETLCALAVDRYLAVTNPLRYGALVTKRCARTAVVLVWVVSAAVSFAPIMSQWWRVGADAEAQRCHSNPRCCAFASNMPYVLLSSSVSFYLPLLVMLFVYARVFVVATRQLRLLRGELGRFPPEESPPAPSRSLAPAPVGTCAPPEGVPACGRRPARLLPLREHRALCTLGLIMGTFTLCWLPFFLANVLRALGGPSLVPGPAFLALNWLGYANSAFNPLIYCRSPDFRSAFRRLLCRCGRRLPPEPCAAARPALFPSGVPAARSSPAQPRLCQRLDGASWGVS
Chain of D(3) dopamine receptor (P35462 whole entry): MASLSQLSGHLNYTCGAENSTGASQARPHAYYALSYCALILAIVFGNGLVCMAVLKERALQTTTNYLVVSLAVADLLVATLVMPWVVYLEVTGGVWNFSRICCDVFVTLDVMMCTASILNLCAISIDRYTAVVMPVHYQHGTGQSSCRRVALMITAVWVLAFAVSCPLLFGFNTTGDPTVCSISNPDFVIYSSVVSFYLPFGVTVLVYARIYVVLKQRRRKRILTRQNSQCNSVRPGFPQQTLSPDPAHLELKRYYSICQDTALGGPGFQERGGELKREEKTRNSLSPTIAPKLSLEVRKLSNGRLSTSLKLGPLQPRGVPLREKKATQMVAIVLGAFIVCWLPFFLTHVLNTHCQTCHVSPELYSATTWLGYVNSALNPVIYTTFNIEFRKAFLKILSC

For orientation: IC50 means the midpoint of a concentration-inhibition curve. In general, Ki refers to the dissociation constant of the complex between target and ligand, obtained from inhibition or displacement. Take `C[C@H]1[C@H](NC(=O)/C(=N\OC(C)(C)C(=O)O)c2csc(N)n2)C(=O)N1S(=O)(=O)O` [AZTREONAM]: the IC50 entry in experiment [1], in experiment [2], in experiment [3], in experiment [4] (cho), in experiment [5] and in experiment [6] was “Not Active” each time. Further, the IC50 result in experiment [7] is “Not Active”. The inhibitory constant (Ki) result in experiment [7] is given as “Not Active”.
On to `O=C(O)CCNC(=O)c1ccc(/N=N/c2ccc(O)c(C(=O)O)c2)cc1` [BALSALAZIDE], for which the 50% inhibitory concentration (IC50) result in experiment [1], in experiment [2], in experiment [3], in experiment [4] (cho), in experiment [5] and in experiment [6] was “Not Active” in each case. Also, in experiment [7], the IC50 entry was “Not Active”. The inhibitory constant (Ki) entry in experiment [7] is reported as “Not Active”.
Consider `COc1cc(OC)c(C(=O)CCCN2CCCC2)c(OC)c1` [BUFLOMEDIL], for which the IC50 result in experiment [1], in experiment [2], in experiment [3], in experiment [4] (cho), in experiment [5] and in experiment [6] was “Not Active” each time. Further, the IC50 result in experiment [7] is given as “Not Active”. Also, the inhibition constant (Ki) result in experiment [7] is reported as “Not Active”.
For the compound `Cn1c(=O)c2c(ncn2C)n(C)c1=O` [CAFFEINE], the half-inhibitory concentration (IC50) entry in experiment [1], in experiment [2], in experiment [3], in experiment [4] (cho), in experiment [5] and in experiment [6] was “Not Active” each time. For the same compound, the IC50 entry in experiment [7] is “Not Active”. Further, the Ki entry in experiment [7] is “Not Active”.
`ClC(Cl)(Cl)Cl` [CARBON TETRACHLORIDE]: the 50% inhibitory concentration (IC50) result in experiment [1], in experiment [2], in experiment [3], in experiment [4] (cho), in experiment [5] and in experiment [6] was “Not Active” each time. Besides, the IC50 result in experiment [7] is “Not Active”. For the same compound, the inhibition constant Ki entry in experiment [7] is given as “Not Active”.
In the case of `CO/N=C(\C(=O)N[C@@H]1C(=O)N2C(C(=O)O)=C(COC(C)=O)CS[C@H]12)c1csc(N)n1` [CEFOTAXIME], the 50% inhibitory concentration (IC50) entry in experiment [1], in experiment [2], in experiment [3], in experiment [4] (cho), in experiment [5] and in experiment [6] was “Not Active” throughout. The half-maximal inhibitory concentration (IC50) result in experiment [7] is reported as “Not Active”. The inhibition constant Ki entry in experiment [7] is given as “Not Active”.
As to `CNC1=Nc2ccc(Cl)cc2C(c2ccccc2)=[N+]([O-])C1` [CHLORDIAZEPOXIDE], the IC50 result in experiment [1], in experiment [2], in experiment [3], in experiment [4] (cho), in experiment [5] and in experiment [6] was “Not Active” throughout. Further, in experiment [7], the IC50 entry is listed as “Not Active”. Besides, in experiment [7], the inhibition constant Ki result is reported as “Not Active”.
Regarding `Cc1cc(O)cc(C)c1Cl` [CHLOROXYLENOL], the concentration for half-maximal inhibition (IC50) result in experiment [1], in experiment [2], in experiment [3], in experiment [4] (cho), in experiment [5] and in experiment [6] was “Not Active” in each case. Also, the IC50 result in experiment [7] was “Not Active”. Further, the Ki result in experiment [7] was “Not Active”.
Consider `CCCNC(=O)NS(=O)(=O)c1ccc(Cl)cc1` [CHLORPROPAMIDE], for which the IC50 entry in experiment [1], in experiment [2], in experiment [3], in experiment [4] (cho), in experiment [5] and in experiment [6] was “Not Active” each time. The IC50 result in experiment [7] is on record as “Not Active”. In addition, the inhibitory constant (Ki) entry in experiment [7] was “Not Active”.
Take `NS(=O)(=O)c1cc(C2(O)NC(=O)c3ccccc32)ccc1Cl` (stereo not given) [CHLORTHALIDONE]: the concentration for half-maximal inhibition (IC50) entry in experiment [1], in experiment [2], in experiment [3], in experiment [4] (cho), in experiment [5] and in experiment [6] was “Not Active” each time. In experiment [7], the IC50 entry was “Not Active”. The Ki result in experiment [7] is “Not Active”.
In the case of `O=C(O)CC(O)(CC(=O)O)C(=O)O` [CITRIC ACID], the IC50 result in experiment [1], in experiment [2], in experiment [3], in experiment [4] (cho), in experiment [5] and in experiment [6] was “Not Active” each time. Further, the 50% inhibitory concentration (IC50) entry in experiment [7] is on record as “Not Active”. For the same compound, the inhibition constant Ki entry in experiment [7] was “Not Active”.
Turning to `CC(C)NCC(O)c1ccccc1Cl` (stereo not given) [CLORPRENALINE], the concentration for half-maximal inhibition (IC50) entry in experiment [1], in experiment [2], in experiment [3], in experiment [4] (cho), in experiment [5] and in experiment [6] was “Not Active” throughout. For the same compound, in experiment [7], the IC50 result is listed as “Not Active”. In addition, the Ki result in experiment [7] is recorded as “Not Active”.
Take `CN1CCN(C(c2ccccc2)c2ccccc2)CC1` [CYCLIZINE]: the IC50 entry in experiment [1] was “Not Active”; in experiment [2], “Not Active”; in experiment [3], “Not Active”; in experiment [4] (read-out: IC50), 2990 nM; in experiment [5], “Not Active”; in experiment [6] it was “Not Active”. Also, in experiment [7], the half-inhibitory concentration (IC50) result was “Not Active”. Moreover, the inhibition constant (Ki) in experiment [4] (read-out: Ki) is 1020 nM; in experiment [7], “Not Active”.
As to `CN1C[C@@H]2C[C@H]1CN2c1cc2c(cc1F)c(=O)c(C(=O)O)cn2C1CC1` [DANOFLOXACIN], the IC50 entry in experiment [1], in experiment [2], in experiment [3], in experiment [4] (cho), in experiment [5] and in experiment [6] was “Not Active” each time. Also, in experiment [7], the IC50 result is “Not Active”. Besides, the Ki entry in experiment [7] was “Not Active”.
As for `COc1cccc2c1C(=O)c1c(O)c3c(c(O)c1C2=O)C[C@@](O)(C(C)=O)C[C@@H]3O[C@H]1C[C@H](N)[C@H](O)[C@H](C)O1` [DAUNORUBICIN], the 50% inhibitory concentration (IC50) result in experiment [1], in experiment [2], in experiment [3], in experiment [4] (cho), in experiment [5] and in experiment [6] was “Not Active” each time. Moreover, the IC50 entry in experiment [7] is “Not Active”. In experiment [7], the inhibition constant (Ki) entry is listed as “Not Active”.
Regarding `O=C(O)c1cc(-c2ccc(F)cc2F)ccc1O` [DIFLUNISAL], the IC50 result in experiment [1], in experiment [2], in experiment [3], in experiment [4] (cho), in experiment [5] and in experiment [6] was “Not Active” in each case. Moreover, the half-maximal inhibitory concentration (IC50) result in experiment [7] is given as “Not Active”. Further, the Ki result in experiment [7] was “Not Active”.
With `C[S+](C)[O-]` [DIMETHYL SULFOXIDE], the IC50 result in experiment [1], in experiment [2], in experiment [3], in experiment [4] (cho), in experiment [5] and in experiment [6] was “Not Active” throughout. Besides, in experiment [7], the IC50 result is recorded as “Not Active”. In experiment [7], the Ki result is “Not Active”.
For `CC1=NN(c2ccccc2)C(=O)C1` [EDARAVONE], the IC50 result in experiment [1], in experiment [2], in experiment [3], in experiment [4] (cho), in experiment [5] and in experiment [6] was “Not Active” in each case. In addition, the concentration for half-maximal inhibition (IC50) entry in experiment [7] is given as “Not Active”. Moreover, the inhibitory constant (Ki) entry in experiment [7] is “Not Active”.
